Values quoted from earlier work in patent US20140017308A1, “COMPOSITIONS COMPRISING A FATTY ACID OIL MIXTURE, A FREE FATTY ACID, AND A STATIN” (Pronova Biopharma Norge AS, priority 2010, published 2014).

Details: in vivo

half-life	Compound
about 0.8 hours	CC[C@H](C)C(=O)O[C@H]1C[C@H](O)C=C2C=C[C@H](C)[C@H](CC[C@@H](O)C[C@@H](O)CC(=O)O)[C@H]21 [pravastatin]
about 20 hours	CC(C)c1nc(N(C)S(C)(=O)=O)nc(-c2ccc(F)cc2)c1/C=C/[C@@H](O)C[C@@H](O)CC(=O)O [rosuvastatin]
2 to 3 h	CCC(C)(C)C(=O)O[C@H]1C[C@@H](C)C=C2C=C[C@H](C)[C@H](CC[C@@H]3C[C@@H](O)CC(=O)O3)[C@H]21 [simvastatin]
